Laboratory results taken from patent publication US20250333397A1 (REMIX THERAPEUTICS INC., priority 2021, published 2025).
pIC50: −log10 of the molar value. Read-outs that look alike come from different tables or passages of the source.

Legend:
Format in all cases: cell-based, human
[1] = test system: HTT mRNA; experiment: RT-qPCR splicing assay, HTT canonical (CJ) and alternative (AJ) junction mRNA; conditions: Homo sapiens; for AC50: read-out: HTT AJ (AC50, increase in AJ mRNA)
Method in brief: (§1)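 A673 (DMEM/10% FBS) or K562 (IMDM/10% FBS) cells treated 24 h at 37 °C with 11-point 3-fold dilutions, top 10 uM final, DMSO ≤0.25%. Lysates read by one-step RT-qPCR for CJ and AJ isoforms, normalized to GAPDH, GUSB or PPIA. ΔΔCt vs DMSO gives RQ via 2^(-ΔΔCt).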

[2] = test system: MYB mRNA; experiment: RT-qPCR splicing assay, MYB canonical (CJ) and alternative (AJ) junction mRNA; conditions: Homo sapiens; for AC50: read-out: MYB AJ (AC50, increase in AJ mRNA)
Method in brief: as §1

[3] = test system: SMN2 mRNA; experiment: RT-qPCR splicing assay panel, SMN2 canonical junction (CJ) mRNA; conditions: Homo sapiens, canonical junction (CJ) mRNA, RT-qPCR panel, Table 4A; read-out: SMN2, decrease in CJ mRNA levels, IC50
Method in brief: as §1

[4] = test system: Target C mRNA; experiment: RT-qPCR splicing assay panel, Target C canonical junction (CJ) mRNA; conditions: Homo sapiens, canonical junction (CJ) mRNA, RT-qPCR panel, Table 4A; read-out: Target C, decrease in CJ mRNA levels, IC50
Method in brief: as §1

[5] = 24 h, Table 3A, A673 or K562 cells, 24 h treatment
[6] = 24 h, Table 3A, A673 or K562 cells, 24 h treatment, read-out: HTT CJ (IC50, decrease in CJ mRNA)
[7] = canonical junction (CJ) mRNA, RT-qPCR panel, Table 4A, read-out: HTT, decrease in CJ mRNA levels, IC50
[8] = 24 h, Table 3A, A673 or K562 cells, 24 h treatment, read-out: MYB CJ (IC50, decrease in CJ mRNA)
[9] = canonical junction (CJ) mRNA, RT-qPCR panel, Table 4A, read-out: MYB, decrease in CJ mRNA levels, IC50

pIC50 [1, 6] | pIC50 [1, 7] | pIC50 [2, 8] | pIC50 [2, 9] | pIC50 [3] | pIC50 [4] | SMILES | AC50 [1, 5] | AC50 [2, 5]
5.00 to 6.00 | 5.00 to 6.00 | < 5.00 | < 5.00 | 6.00 to 7.00 | < 5.00 | Oc1cc(-c2cnnc(C3CC3)c2)ccc1-c1ccc(N2CC[C@@H](NC3CCC3)C2)nn1 [Compound 279, 2-{6-[(3R)-3-(cyclobutylamino)pyrrolidin-1-yl]pyridazin-3-yl}-5-(6-cyclopropylpyridazin-4-yl)phenol] | > 10000 nM | > 10000 nM
5.00 to 6.00 | 5.00 to 6.00 | 5.00 to 6.00 | 5.00 to 6.00 | 6.00 to 7.00 | < 5.00 | Oc1cc(-c2cnnc(C3CC3)c2)ccc1-c1ccc(N2CC[C@H](NC3CCC3)C2)nn1 [Compound 280] | 1000 to 10000 nM | > 10000 nM
6.00 to 7.00 | 6.00 to 7.00 | 5.00 to 6.00 | 5.00 to 6.00 | > 7.00 | 5.00 to 6.00 | Cc1ccc(-c2ccc(-c3ccc(N4CC[C@H](NC5CCC5)C4)nn3)c(O)c2)cn1 [Compound 281] | 100 to 1000 nM | 1000 to 10000 nM
> 7.00 | > 7.00 | 6.00 to 7.00 | 6.00 to 7.00 | > 7.00 | > 7.00 | COc1cc(-c2ccc(-c3ccc(N4CC[C@H](NC(C)(C)C)C4)nn3)c(O)c2)ncn1 [Compound 283, 2-{6-[(3S)-3-(tert-butylamino)pyrrolidin-1-yl]pyridazin-3-yl}-5-(6-methoxypyrimidin-4-yl)phenol] | < 100 nM | 100 to 1000 nM
> 7.00 | > 7.00 | 6.00 to 7.00 | 6.00 to 7.00 | > 7.00 | 6.00 to 7.00 | COc1cc(-c2cc(O)c(-c3ccc(N4CCC(C)(NC(C)C)C4)nn3)cc2F)cnn1 (centres unmarked) [Compound 284] | < 100 nM | 100 to 1000 nM
> 7.00 | > 7.00 | 6.00 to 7.00 | 6.00 to 7.00 | > 7.00 | > 7.00 | COc1cc(-c2ccc(-c3ccc(N4CCC(C)(NC(C)C)C4)nn3)c(O)c2)cnn1 (centres unmarked) [Compound 285, 2-{6-[3-(isopropylamino)-3-methylpyrrolidin-1-yl]pyridazin-3-yl}-5-(6-methoxypyridazin-4-yl)phenol] | < 100 nM | 100 to 1000 nM
> 7.00 | > 7.00 | 5.00 to 6.00 | 5.00 to 6.00 | > 7.00 | 6.00 to 7.00 | COc1cc(-c2cc(O)c(-c3ccc(N4CC[C@@H](NC5(C)CCC5)C4)nn3)cc2F)cnn1 [Compound 286] | 100 to 1000 nM | 1000 to 10000 nM
> 7.00 | > 7.00 | > 7.00 | > 7.00 | > 7.00 | > 7.00 | COc1cc(-c2ccc(-c3ccc(N4CC[C@@H](NC5(C)CCC5)C4)nn3)c(O)c2)cnn1 [Compound 287, (R)-5-(6-methoxypyridazin-4-yl)-2-(6-(3-((1-methylcyclobutyl)amino)pyrrolidin-1-yl)pyridazin-3-yl)phenol] | < 100 nM | < 100 nM
> 7.00 | > 7.00 | 6.00 to 7.00 | 6.00 to 7.00 | > 7.00 | 6.00 to 7.00 | COc1cc(-c2ccc(-c3ccc(N4CC[C@@H](NCC5CC5)C4)nn3)c(O)c2)cnn1 [Compound 288] | 100 to 1000 nM | 100 to 1000 nM
> 7.00 | > 7.00 | 6.00 to 7.00 | 6.00 to 7.00 | > 7.00 | > 7.00 | COc1cc(-c2ccc(-c3ccc(N4CC[C@H](NC5(C)CCC5)C4)nn3)c(O)c2)cnn1 [Compound 289, (S)-5-(6-methoxypyridazin-4-yl)-2-(6-(3-((1-methylcyclobutyl)amino)pyrrolidin-1-yl)pyridazin-3-yl)phenol] | 100 to 1000 nM | 100 to 1000 nM
6.00 to 7.00 | 6.00 to 7.00 | 6.00 to 7.00 | 6.00 to 7.00 | > 7.00 | 6.00 to 7.00 | CCN(C1CCC1)[C@@H]1CCN(c2ccc(-c3ccc(-c4cnnc(OC)c4)cc3O)nn2)C1 [Compound 290, 2-{6-[(3R)-3-[cyclobutyl(ethyl)amino]pyrrolidin-1-yl]pyridazin-3-yl}-5-(6-methoxypyridazin-4-yl)phenol] | 100 to 1000 nM | 100 to 1000 nM
5.00 to 6.00 | 5.00 to 6.00 | < 5.00 | < 5.00 | 5.00 to 6.00 | < 5.00 | Cc1cc(-c2ccc(-c3ccc(N4CC[C@H](NC5CCC5)C4)nn3)c(O)c2)cnn1 [Compound 291, 2-{6-[(3S)-3-(cyclobutylamino)pyrrolidin-1-yl]pyridazin-3-yl}-5-(6-methylpyridazin-4-yl)phenol] | > 10000 nM | > 10000 nM
< 5.00 | < 5.00 | < 5.00 | < 5.00 | 5.00 to 6.00 | < 5.00 | Cc1cc(-c2ccc(-c3ccc(N4CC[C@@H](NC5CCC5)C4)nn3)c(O)c2)cnn1 [Compound 292, 2-{6-[(3R)-3-(cyclobutylamino)pyrrolidin-1-yl]pyridazin-3-yl}-5-(6-methylpyridazin-4-yl)phenol] | > 10000 nM | > 10000 nM
6.00 to 7.00 | 6.00 to 7.00 | 5.00 to 6.00 | 5.00 to 6.00 | > 7.00 | 5.00 to 6.00 | Cc1ccc(-c2ccc(-c3ccc(N4CC[C@@H](NC5CCC5)C4)nn3)c(O)c2)cn1 [Compound 293, 2-{6-[(3R)-3-(cyclobutylamino)pyrrolidin-1-yl]pyridazin-3-yl}-5-(6-methylpyridin-3-yl)phenol] | 100 to 1000 nM | 100 to 1000 nM
> 7.00 | > 7.00 | 6.00 to 7.00 | 6.00 to 7.00 | > 7.00 | 6.00 to 7.00 | CN(C1CCC1)[C@H]1CCN(c2ccc(-c3ccc(-c4cn[nH]c4)cc3O)nn2)C1 [Compound 294, 2-{6-[(3S)-3-[cyclobutyl(methyl)amino]pyrrolidin-1-yl]pyridazin-3-yl}-5-(1H-pyrazol-4-yl)phenol] | 100 to 1000 nM | 100 to 1000 nM
> 7.00 | > 7.00 | 6.00 to 7.00 | 6.00 to 7.00 | > 7.00 | > 7.00 | CN(C1CCC1)[C@H]1CCN(c2ccc(-c3cc(F)c(-c4cn[nH]c4)cc3O)nn2)C1 [Compound 295] | < 100 nM | 100 to 1000 nM
6.00 to 7.00 | 6.00 to 7.00 | 6.00 to 7.00 | 6.00 to 7.00 | > 7.00 | 6.00 to 7.00 | CN(C1CCC1)[C@@H]1CCN(c2ccc(-c3ccc(-c4cn[nH]c4)cc3O)nn2)C1 [Compound 296, 2-{6-[(3R)-3-[cyclobutyl(methyl)amino]pyrrolidin-1-yl]pyridazin-3-yl}-5-(1H-pyrazol-4-yl)phenol] | 100 to 1000 nM | 100 to 1000 nM
> 7.00 | > 7.00 | > 7.00 | > 7.00 | > 7.00 | > 7.00 | Cn1ncc(-c2ccc(-c3ccc(N4CC[C@@H](NC(C)(C)C)C4)nn3)c(O)c2)cc1=O [Compound 297, 5-(4-{6-[(3R)-3-(tert-butylamino)pyrrolidin-1-yl]pyridazin-3-yl}-3-hydroxyphenyl)-2-methylpyridazin-3-one] | < 100 nM | < 100 nM
> 7.00 | > 7.00 | 6.00 to 7.00 | 6.00 to 7.00 | > 7.00 | 6.00 to 7.00 | Cn1ncc(-c2ccc(-c3ccc(N4CC[C@H](NC(C)(C)C)C4)nn3)c(O)c2)cc1=O [Compound 298, 5-(4-{6-[(3S)-3-(tert-butylamino)pyrrolidin-1-yl]pyridazin-3-yl}-3-hydroxyphenyl)-2-methylpyridazin-3-one] | 100 to 1000 nM | 100 to 1000 nM
> 7.00 | > 7.00 | 6.00 to 7.00 | 6.00 to 7.00 | > 7.00 | 6.00 to 7.00 | COc1cc(-c2cc(O)c(-c3ccc(N4CC[C@H](NC5(C)CCC5)C4)nn3)cc2F)cnn1 [Compound 299] | < 100 nM | 100 to 1000 nM
< 5.00 | < 5.00 | < 5.00 | < 5.00 | 5.00 to 6.00 | < 5.00 | CCOc1cc(-c2ccc(-c3ccc(N4CC[C@@H](NC5CCC5)C4)nn3)c(O)c2)cnn1 [Compound 301] | > 10000 nM | > 10000 nM
6.00 to 7.00 | 6.00 to 7.00 | < 5.00 | < 5.00 | 6.00 to 7.00 | < 5.00 | COc1cc(-c2ccc(-c3ccc(N4CC[C@H](N(CCF)C5CCC5)C4)nn3)c(O)c2)cnn1 [Compound 303] | 100 to 1000 nM | > 10000 nM
